Measured values taken from patent publication US4621089A, “Pyrazolopyridine derivatives and their use in treating inflammation and allergic conditions” (Beecham Group p.l.c., priority 1984, dated 1986).

Key:
[1] = system: mouse sensitised to oxazolone; assay: Mouse Oxazolone Screen (topical anti-inflammatory activity); type: in vivo; conditions: 500 μg/ear topical, ear weights 24 h after oxazolone challenge
Method: Compounds were tested for topical anti-inflammatory activity in a screen using the mouse sensitised to oxazolone, by a method modified from that of Dietrich and Hess [Dietrich, F. M., and Hess, R., Int. Arch. Allergy, (1970), 38, 246-259].
Mice were sensitised with oxazolone (2 mg in 20 μl ethanol) on a shaved area of the abdomen. Five days later, the animals recieved 10 μl THF/MeOH (1:1 v/v) on the right ear, and the test compound in the same solvent on the left ear. One hour later, the animals were challenged with 100 μg oxazolone in 10 μl acetone on each ear. Ear weights were measured 24 h later. Percentage inhibition of the inflammatory swelling refers to the increase in weight of left ears (oxazolone plus compound) compared with solvent-treated negative controls, as a proportion of the increase in weight of right ears (oxazolone alone) over similar controls.

mice = conditions: J. Heterocycl. Chem. 1971, 8(6), 1035-7; cited from earlier work
cantharidin mouse ear = assay: Mouse Cantharidin Screen (topical anti-inflammatory activity, mouse ear); type: in vivo; conditions: ears weighed 24 h after cantharidin
Method: Compounds were tested for topical anti-inflammatory activity in a cantharidin mouse ear screen, modified from Swinge et al [Swingle, K. F., Reiter, M. J. and Schwartzmiller, D. H., Arch. Int. Pharmacodyn., (1981), 254, 168-176].
25 μg cantharidin (in 10 μl THF/MeOH) was applied to both ears. Compound, in the same solvent, was applied at the same time, to the left ear only. Ears were weight 24 h after cantharidin application. Percentage inhibition of the acute inflammatory swelling refers to the increase in weight of left ears (cantharidin plug compound) compared with solvent-treated negative controls, as a proportion of the increase in weight of right ears (cantharidin alone) over similar controls.

[2] = system: 5-Lipoxygenase enzyme from RBL-1 cells; assay: RBL-1 5-Lipoxygenase Screen; type: biochemical; conditions: 20 μM compound, 10,000 g supernatant, 6.3 μm arachidonic acid, 29° C.
Method: 5-Lipoxygenase enzyme was prepared as a 10,000 g supernatant from RBL-1 cells by the method of Jakschik [Jakschik, B. A., Sun. F. F., Lee, L. M. and Steinhoff, M. M., 1980, Biochem. Biophys. Res. Comm. 95, 103]. The 10,000 g supernatant was diluted with homogenization buffer to the equivalent of 1.5-2.5×10^7 cells ml^-1 and made 2 mM with respect to CaCl2. Aliquots of 0.5 ml were then dispensed into tubes, and incubated at 29° C. with 5 γl ethanol or compound in ethanol at the desired concentration for 2 min. Then [1-^14 C] arachidonic acid was added in buffer to give a final concentration of 6.3 μm and 0.2 μCi per incubation, and the reaction continued at 29° C. for 2 min. The reaction was terminated by adding 1 ml of acetone and cooling on ice, 0.5 ml of ice-cold saline and 10 μl of 2N formic acid were added, and the mixture was extracted with 2×2 ml of chloroform. The extract was stored under N2 at -20° C. until analysis by chromatography. Activity was measured as the percentage of total radioactivity found in 5-HETE and 5,12-diHETE, and inhibition calculated as the decrease in formation of the sum of these two species in compound-treated incubates relative to control incubates.

CCOC(=O)c1cnc2cn[nH]c2c1Nc1ccccc1 [Example 1, Ethyl 7-anilino-1H-pyrazolo[4,3-b]pyridine-6-carboxylate]
inhibition of the inflammatory swelling [1]: 24%

CC(=O)N(C(C)=O)c1cc(C)nc2c(C)n[nH]c12 [compound wherein R is NAc2]
CNS antidepressant activity (mice): CNS antidepressant activity

CCCCNc1c(C(=O)OCC)cnc2cn[nH]c12 [Example 6, Ethyl 7-n-Butylamino-1H-pyrazolo[4,3-b]pyridine-6-carbosylate]
inhibition of the acute inflammatory swelling (cantharidin mouse ear; 200 μg/ear topical): 42% | inhibition of formation of 5-HETE and 5,12-diHETE [2]: 78%

C=CCNc1c(C(=O)OCC)cnc2cn[nH]c12 [Example 2, Ethyl 7-Allylamino-1H-pyrazolo[4,3-b]-pyridine-6-carboxylate]
inhibition of the acute inflammatory swelling (cantharidin mouse ear; 500 μg/ear topical): 20%
